Consider 8 molecules from patent publication US10221182B2, “3,3-difluoro-piperidine derivatives as NR2B NMDA receptor antagonists” (Rugen Holdings (Cayman) Limited, priority 2015, dated 2019).

pIC50: −log10 of the molar value. Like-named read-outs stand apart in the source and are kept apart here.

Data set [1] has as its target human NR1/NR2B (Homo sapiens (Human), UniProt Q05586+Q13224). In words: NR2B antagonist activity, Fluo-4 calcium influx assay in HEK293 cells. Conditions: glutamate 100 μM, glycine 50 μM. The data set is classed as cell-based. The procedure:
(§1) Activation of the NR2A or NR2B subtype of NMDA receptor with glutamate as an agonist and glycine co-agonist on these cells results in calcium influx, which can be monitored with fluorescent indicator Fluo-4.
(§2) For experiments, the cells were seeded onto poly-D-lysine-coated 96-well black plates with clear bottom (Corning) at a density of ˜50,000 cells/well. After overnight culture, the growth medium was removed from the wells and the cells were incubated at 37° C. for 60 min in Hanks buffer containing 4 μM fluo-4-AM (Invitrogen) and 0.1% bovine serum albumin (BSA). After dye-loading, the cells were washed three times with Hanks buffer and incubated for 10 min at room temperature with various concentrations of test compounds prepared in Hanks buffer with 0.1% BSA. The cell plates were placed onto FDSS μCell fluorescence reader (Hamamatsu). After 20 sec reading of background fluorescence, agonist glutamate at final 100 μM and co-agonist glycine at final 50 μM were added to the cells to activate the receptor, and the resulting fluorescence changes were recorded and quantified. Based on the changes in fluorescence intensity, the pharmacological effect of test compounds were analyzed and the IC50 values derived from a non-linear least squares fitting of the concentration-dependent response to a standard logistic equation using Prism (Graphpad, Inc): Amplitude=Max Amplitude/(1+([…])^n).

The target in data set [2] is human NR1/NR2A (Homo sapiens (Human), UniProt Q05586+Q12879). In words: NR2A antagonist activity, Fluo-4 calcium influx assay in HEK293 cells. In kind it is cell-based. The procedure:
as §1, §2

Data set [3] deals with T1, hERG channel (Homo sapiens (Human), UniProt Q12809).
T1 sequence (Q12809 whole entry): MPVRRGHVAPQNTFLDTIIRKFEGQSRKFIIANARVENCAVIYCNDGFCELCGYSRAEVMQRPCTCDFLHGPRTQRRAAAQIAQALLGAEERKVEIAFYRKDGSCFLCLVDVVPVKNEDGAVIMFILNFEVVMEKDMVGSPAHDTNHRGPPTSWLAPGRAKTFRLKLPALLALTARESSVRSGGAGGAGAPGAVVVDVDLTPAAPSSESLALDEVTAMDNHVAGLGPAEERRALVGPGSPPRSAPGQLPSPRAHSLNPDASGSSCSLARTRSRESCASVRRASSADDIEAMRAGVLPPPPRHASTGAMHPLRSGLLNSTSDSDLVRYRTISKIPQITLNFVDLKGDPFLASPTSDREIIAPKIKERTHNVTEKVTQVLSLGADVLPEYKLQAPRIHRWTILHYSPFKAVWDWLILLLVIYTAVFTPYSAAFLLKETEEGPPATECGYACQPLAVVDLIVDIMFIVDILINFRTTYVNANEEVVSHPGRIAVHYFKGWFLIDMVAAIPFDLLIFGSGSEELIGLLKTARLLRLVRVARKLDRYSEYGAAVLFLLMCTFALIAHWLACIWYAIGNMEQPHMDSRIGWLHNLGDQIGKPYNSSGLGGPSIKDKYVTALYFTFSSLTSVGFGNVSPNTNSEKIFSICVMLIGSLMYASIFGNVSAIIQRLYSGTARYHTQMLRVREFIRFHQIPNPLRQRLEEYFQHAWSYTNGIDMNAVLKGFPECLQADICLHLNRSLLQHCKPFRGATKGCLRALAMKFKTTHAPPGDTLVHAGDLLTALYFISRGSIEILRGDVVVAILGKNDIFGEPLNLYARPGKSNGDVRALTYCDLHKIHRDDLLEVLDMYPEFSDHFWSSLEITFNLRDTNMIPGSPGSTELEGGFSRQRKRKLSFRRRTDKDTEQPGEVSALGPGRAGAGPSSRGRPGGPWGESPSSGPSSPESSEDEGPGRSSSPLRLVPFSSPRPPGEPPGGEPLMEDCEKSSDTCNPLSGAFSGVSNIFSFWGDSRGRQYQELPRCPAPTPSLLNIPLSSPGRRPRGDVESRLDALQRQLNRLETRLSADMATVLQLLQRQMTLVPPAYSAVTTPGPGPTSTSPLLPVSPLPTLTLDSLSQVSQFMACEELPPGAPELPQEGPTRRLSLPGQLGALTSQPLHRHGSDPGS
In data set [4] the target is human NR1/NR2A (Homo sapiens (Human), UniProt Q12879). In words: NR2A antagonist activity, Fluo-4 calcium influx assay in HEK293 cells. The data set is classed as cell-based. The procedure:
as §1, §2

For data set [5], the target named is CYP2D6 (Homo sapiens (Human), UniProt P10635). In words: CYP P450 enzyme inhibition in pooled human liver microsome. Conditions: dextromethorphan 5 μM; for CYP2D6 @ 10 μM: inhibition at 10 μM, pooled HLM. For orientation: Microsomes from liver hold many membrane-bound enzymes, among them those of drug oxidation.
Sequence of CYP2D6 (P10635 whole entry): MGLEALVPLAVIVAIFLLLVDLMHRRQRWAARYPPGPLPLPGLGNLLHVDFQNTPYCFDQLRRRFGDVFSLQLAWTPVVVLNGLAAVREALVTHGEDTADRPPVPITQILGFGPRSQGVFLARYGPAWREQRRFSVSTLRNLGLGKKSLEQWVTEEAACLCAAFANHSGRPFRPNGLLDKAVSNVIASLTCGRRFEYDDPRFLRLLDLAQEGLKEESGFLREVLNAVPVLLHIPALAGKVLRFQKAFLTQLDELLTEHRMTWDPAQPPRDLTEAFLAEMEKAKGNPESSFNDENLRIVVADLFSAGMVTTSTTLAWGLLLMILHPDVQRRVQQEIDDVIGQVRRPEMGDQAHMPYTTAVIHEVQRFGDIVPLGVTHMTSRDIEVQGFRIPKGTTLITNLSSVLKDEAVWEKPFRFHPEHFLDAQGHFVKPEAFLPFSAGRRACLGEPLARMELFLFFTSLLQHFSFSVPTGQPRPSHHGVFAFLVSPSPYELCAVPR
Procedure: Those CYP isoforms and their corresponding probe substrates are as follows: CYP1A2 (phenacetin, 30 μM), CYP2C9 (tolutamide, 100 μM), CYP2C19 (S-mephenytoin, 40 μM), CYP2D6 (dextromethorphan, 5 μM) and CYP3A4 (midazolam, 1 μM). All probe substrates were used at concentrations near or below their Kms. For experiment, a reaction mixture of test compound at 10 uM or in serial dilution, CYP probe substrate described above and 0.2 mg/mL pooled HLM in phosphate buffer, pH 7.4 in a final volume of 200 μL was pre-incubated at 37° C. for 10 minutes in triplicate. The reaction was initiated by addition of NADPH at final concentration of 1 mM. The reaction was terminated after 10 minutes (CYP1A2, CYP2D6 and CYP3A4) or 30 minutes (CYP2C9 and CYP2C19) by addition of 100 μL ice-cold acetonitrile with internal standard (IS). The samples were then centrifuged at 13,000 rpm and the supernatants were injected to LC-MS/MS (Agilent Technologies) to quantify the concentration of the specific metabolites of the probe substrates formed by individual CYP450 isoforms. The inhibition ratio is calculated as: (Mt−M0)/Mwater×100% in which Mt and M0 represent the concentrations of the specific probe substrate metabolite, which was formed by individual CYP450 isoform, at the beginning and end of the reaction in the presence of test compound; while Mwater represents the concentration of the specific metabolite at the end of the reaction in the absence of test compound. Test compound concentration-dependent response data experiments performed in triplicate.
Data set [6] deals with T1, hERG channel. In words: hERG channel inhibition, whole cell patch clamp in HEK293 cells. Conditions: for hERG @ 10 μM: inhibition at 10 μM.
The test system of data set [7] is mice. As to the kind of experiment: Forced swim test (FST). In kind it is in vivo. Conditions: male mice, intraperitoneal; imipramine 32 mg/kg IP.
Procedure: Procedure. Male mice (strain NLMN) weighing 25-35 g were used for testing. All animals were housed in a temperature (22-24° C.) and humidity (50-60%) controlled environment with free access to food and water on a 12-hour light-dark cycle. Test compounds were dissolved in 0.5% dimethylsulfoxide, 4% hydroxypropyl-β-cyclodextrin water to generate the appropriate dosing solution. Drugs were administered by intraperitoneal injection at a dose volume of 10 mL/kg. Testing was initiated 20-60 minutes after dosing. […] Mice were placed in a white plastic cylinder 20 cm high with a diameter of 21 cm containing 10 cm of water at 25±2° C. The mice were videotaped for 6 minutes, and the last 4 minutes of video were analyzed by a blinded observer off-line. The observer judged the animal to be immobile when it ceased all activity (struggling, swimming, jumping etc.) and floated passively atop the water. The amount of time each animal spent in the immobile state was recorded and used for statistical analysis of compound effect. Group differences were evaluated by student's t-test or one-way ANOVA followed by post-hoc Dunnett's test.
Where [8] appears, read: hNR2B IC50, HEK293 cells expressing NR1/NR2B.
Setting [9] is: read-out: hNR2A IC50; HEK293 cells expressing NR1/NR2A; glutamate 100 μM, glycine 50 μM.

Sequence of human NR1/NR2B (Q13224 27-1484, other chains not shown): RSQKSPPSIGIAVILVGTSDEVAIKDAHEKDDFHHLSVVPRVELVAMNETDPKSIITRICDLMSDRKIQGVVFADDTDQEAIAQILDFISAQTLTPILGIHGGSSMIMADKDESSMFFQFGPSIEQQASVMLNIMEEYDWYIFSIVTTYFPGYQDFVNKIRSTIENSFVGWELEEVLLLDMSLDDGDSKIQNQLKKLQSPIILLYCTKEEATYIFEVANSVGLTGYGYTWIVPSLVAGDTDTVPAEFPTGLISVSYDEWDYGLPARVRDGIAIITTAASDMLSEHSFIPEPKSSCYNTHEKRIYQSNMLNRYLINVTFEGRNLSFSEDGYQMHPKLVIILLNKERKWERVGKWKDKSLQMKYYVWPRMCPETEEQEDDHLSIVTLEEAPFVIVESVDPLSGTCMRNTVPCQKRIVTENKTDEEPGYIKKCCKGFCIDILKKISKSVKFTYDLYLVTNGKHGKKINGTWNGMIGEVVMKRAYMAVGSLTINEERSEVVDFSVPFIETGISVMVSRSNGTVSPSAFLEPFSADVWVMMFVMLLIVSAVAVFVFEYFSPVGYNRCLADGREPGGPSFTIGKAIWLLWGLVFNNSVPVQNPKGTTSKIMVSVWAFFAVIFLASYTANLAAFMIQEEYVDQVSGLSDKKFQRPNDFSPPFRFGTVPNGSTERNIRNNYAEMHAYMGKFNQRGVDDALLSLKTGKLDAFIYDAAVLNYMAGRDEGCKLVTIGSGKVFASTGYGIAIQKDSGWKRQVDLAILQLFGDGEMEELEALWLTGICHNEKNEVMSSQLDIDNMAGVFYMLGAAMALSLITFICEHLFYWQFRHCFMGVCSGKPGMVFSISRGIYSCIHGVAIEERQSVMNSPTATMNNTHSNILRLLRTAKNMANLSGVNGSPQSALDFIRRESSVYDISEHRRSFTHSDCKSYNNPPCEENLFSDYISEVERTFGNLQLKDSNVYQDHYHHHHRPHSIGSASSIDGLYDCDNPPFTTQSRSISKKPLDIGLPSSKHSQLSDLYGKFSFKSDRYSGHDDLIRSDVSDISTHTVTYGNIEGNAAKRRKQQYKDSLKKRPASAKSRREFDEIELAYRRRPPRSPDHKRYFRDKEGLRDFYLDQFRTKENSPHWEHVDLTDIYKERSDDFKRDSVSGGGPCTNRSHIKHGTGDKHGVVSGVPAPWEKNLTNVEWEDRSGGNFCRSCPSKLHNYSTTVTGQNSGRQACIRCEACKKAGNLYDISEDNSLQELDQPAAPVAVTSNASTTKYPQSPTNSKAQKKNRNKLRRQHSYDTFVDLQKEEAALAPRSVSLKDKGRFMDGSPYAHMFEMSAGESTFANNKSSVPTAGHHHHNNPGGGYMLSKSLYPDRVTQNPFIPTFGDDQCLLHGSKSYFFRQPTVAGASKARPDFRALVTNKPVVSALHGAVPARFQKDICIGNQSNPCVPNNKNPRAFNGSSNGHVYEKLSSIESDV
Sequence of human NR1/NR2A (Homo sapiens (Human), UniProt Q12879) (Q12879 23-1464, other chains not shown): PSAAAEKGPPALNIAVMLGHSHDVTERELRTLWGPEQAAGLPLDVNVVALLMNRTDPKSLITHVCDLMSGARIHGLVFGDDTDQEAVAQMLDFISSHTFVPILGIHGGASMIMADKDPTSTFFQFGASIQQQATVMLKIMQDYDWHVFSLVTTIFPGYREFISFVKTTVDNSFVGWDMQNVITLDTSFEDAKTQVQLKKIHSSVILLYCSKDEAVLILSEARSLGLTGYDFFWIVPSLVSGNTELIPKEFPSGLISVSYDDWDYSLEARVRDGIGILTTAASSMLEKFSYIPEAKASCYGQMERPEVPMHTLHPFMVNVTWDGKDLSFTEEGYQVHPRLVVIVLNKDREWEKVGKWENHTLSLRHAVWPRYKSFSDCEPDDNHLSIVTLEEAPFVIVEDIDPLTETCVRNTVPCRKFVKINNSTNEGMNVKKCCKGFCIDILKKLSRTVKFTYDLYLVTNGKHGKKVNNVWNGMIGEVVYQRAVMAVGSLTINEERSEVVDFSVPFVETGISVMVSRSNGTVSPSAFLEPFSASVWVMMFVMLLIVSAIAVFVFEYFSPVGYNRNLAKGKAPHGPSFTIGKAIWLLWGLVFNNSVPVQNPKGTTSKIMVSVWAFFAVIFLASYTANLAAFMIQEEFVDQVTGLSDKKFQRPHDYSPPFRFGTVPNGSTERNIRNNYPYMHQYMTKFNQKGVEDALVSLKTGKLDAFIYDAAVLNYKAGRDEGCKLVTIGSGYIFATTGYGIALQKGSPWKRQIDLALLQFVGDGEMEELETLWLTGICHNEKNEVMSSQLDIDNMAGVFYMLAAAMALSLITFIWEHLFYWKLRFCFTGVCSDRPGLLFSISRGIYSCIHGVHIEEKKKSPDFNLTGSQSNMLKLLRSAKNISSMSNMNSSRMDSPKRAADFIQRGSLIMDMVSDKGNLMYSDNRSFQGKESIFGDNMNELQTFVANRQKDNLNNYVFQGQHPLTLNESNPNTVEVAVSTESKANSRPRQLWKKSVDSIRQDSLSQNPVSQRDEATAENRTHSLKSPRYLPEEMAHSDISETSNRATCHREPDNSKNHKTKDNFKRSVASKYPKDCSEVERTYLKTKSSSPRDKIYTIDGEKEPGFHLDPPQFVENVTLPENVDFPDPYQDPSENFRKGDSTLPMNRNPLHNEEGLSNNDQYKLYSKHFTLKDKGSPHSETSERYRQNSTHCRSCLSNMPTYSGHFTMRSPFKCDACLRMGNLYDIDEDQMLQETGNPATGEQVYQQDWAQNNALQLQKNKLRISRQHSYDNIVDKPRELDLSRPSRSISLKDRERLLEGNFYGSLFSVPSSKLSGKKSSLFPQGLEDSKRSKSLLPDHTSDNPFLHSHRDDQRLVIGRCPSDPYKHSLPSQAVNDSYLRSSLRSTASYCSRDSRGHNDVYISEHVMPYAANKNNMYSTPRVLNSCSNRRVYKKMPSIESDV

Regarding `CN(c1ncnc2[nH]ncc12)C1CCN(CCc2ccc(C(F)(F)F)cc2)CC1(F)F` (racemic) [C-1.33], the values for the pIC50 in data set [1] (setting [8]) and in data set [2] were 6.99 and less than 5.00, respectively. Besides, the “hERG @ 10 μM” value in data set [3] was 59%.

Take `FC1(F)CN(CCc2ccc(Cl)cc2)CCC1Nc1ncnc2[nH]ncc12` (single isomer, unassigned) [E2-1.3, (S*)-N-(1-(4-chlorophenethyl)-3,3-difluoropiperidin-4-yl)-1H-pyrazolo[3,4-d]pyrimidin-4-amine]: the values for the negative-log IC50 (pIC50) in data set [1] (setting [8]) and in data set [4] (setting [9]) were 7.50 and less than 5.00, respectively. For the same molecule, the “CYP2D6 @ 10 μM” value in data set [5] is recorded as 27.6%. The “hERG @ 10 μM” value in data set [6] amounted to 64%.

On to `CN(C)CCCN1c2ccccc2CCc2ccccc21` [imipramine], for which the “antidepressant activity (immobility time)” value in data set [7] is “showed the expected antidepressant activity”.

`FC(F)(F)c1ccc(CCN2CCC(Nc3ncnc4[nH]ncc34)C(F)(F)C2)cc1` (single isomer, unassigned; (-)) [E2-1.5, (−)-(S*)-N-(3,3-difluoro-1-(4-(trifluoromethyl)phenethyl)piperidin-4-yl)-1H-pyrazolo[3,4-d]pyrimidin-4-amine]: the pIC50 in data set [4] (setting [9]) is less than 5.00; in data set [5] (CYP2D6 IC50, pooled HLM), 4.82; in data set [6] (hERG IC50), 5.12. In addition, the “CYP2D6 @ 10 μM” value in data set [5] was 37.9%.

On to `Fc1cc(Cl)ccc1CCN1CCC(Nc2ncnc3[nH]ncc23)C(F)(F)C1` (single isomer, unassigned) [E2-1.16, (S*)-N-(1-(4-chloro-2-fluorophenethyl)-3,3-difluoropiperidin-4-yl)-1H-pyrazolo-[3,4-d]pyrimidin-4-amine], for which the pIC50 in data set [1] (setting [8]) was 7.21; in data set [4] (setting [9]), less than 5.00. For the same molecule, the “hERG @ 10 μM” value in data set [6] amounted to 64%.

Consider `FCc1ccc(CCN2CCC(Nc3ncnc4[nH]ncc34)C(F)(F)C2)cc1` (single isomer, unassigned) [E2-1.7, (S*)-N-(3,3-difluoro-1-(4-(fluoromethyl)phenethyl)piperidin-4-yl)-1H-pyrazolo-[3,4-d]-pyrimidin-4-amine], for which the pIC50 in data set [1] (setting [8]) is 7.42; in data set [4] (setting [9]), less than 5.00. Moreover, in data set [6], the “hERG @ 10 μM” value was 49%.

For `FC(F)c1ccc(CCN2CCC(Nc3ncnc4[nH]ncc34)C(F)(F)C2)cc1` (single isomer, unassigned) [E2-1.6, (S*)-N-(1-(4-(difluoromethyl)phenethyl)-3,3-difluoropiperidin-4-yl)-1H-pyrazolo-[3,4-d]-pyrimidin-4-amine], the pIC50 in data set [4] (setting [9]) was less than 5.00. Further, the “CYP2D6 @ 10 μM” value in data set [5] was 37.1%. For the same molecule, the “hERG @ 10 μM” value in data set [6] is on record as 70%.

Consider “(±)-N-(1-(3,4-difluorophenethyl)-3,3-difluoropiperidin-4-yl)-1H-pyrazolo-[3,4-d]-pyrimidin-4-amine [C-1.15]”, for which the negative-log IC50 (pIC50) is 7.10 in data set [1] (HEK293 cells expressing NR1/NR2B, read-out: hNR2B IC50) and less than 5.00 in data set [4] (HEK293 cells expressing NR1/NR2A; glutamate 100 μM, glycine 50 μM; read-out: hNR2A IC50). Moreover, the “hERG @ 10 μM” value in data set [6] stood at 37%.

As a reminder, the pIC50 is −log10 of the IC50, conventionally taken in molar units.
